Data on 2 compounds can be found in ChEMBL document CHEMBL6182945, “MMAE-Based Peptide-Drug Conjugates Targeting GPC3 for Precision Chemoradiotherapy in Hepatocellular Carcinoma” (J Med Chem, 2025).

A word on the IC50: it is the concentration at which inhibition is half-maximal. A word on the half-life: it is the time needed for the level to fall by half in the phase considered.

A short description of data set [1]: Drug uptake in human Huh-7 cells assessed as red fluorescence in inside the cells measured after 30 mins by live cell confocal imaging analysis. The class given is ADME, cell-based. Particulars: huh-7, 0.5 h.
The nature of data set [2]: Drug uptake in human Huh-7 cells assessed as green fluorescence in lysosomes measured after 30 mins co-staining with lysotracker by live cell confocal imaging analysis. Particulars: huh-7, 0.5 h. It is filed as ADME, cell-based.
A short description of data set [3]: Plasma stability in human plasma assessed as compound remaining at 500 uM measured after 8 hrs by LC-MS/MS analysis relative to control. The class given is ADME, cell-free. The settings on record: read-out: Stability.
The test system of data set [4] is HeLa. The experiment in a line: Antiproliferative activity against GPC3-negative human HeLa cells assessed as cytotoxicity measured after 72 hrs by MTT assay. It is filed as functional, cell-based. A general note: Formazan colour is commonly taken as a measure of viable cells.
Data set [5] is described as follows: Toxicity in female BALB/c mouse xenografted with human Huh-7 cells assessed as pathological change in spleen tissue at 1 mg/kg, iv followed by irradiated with 2 Gy for 2 consecutive days, once a week for 3 weeks measured on day 22. The class given is organism-based. The settings on record: in vivo, 528 h, time 22 day. For orientation: A xenograft is tissue or cells of one species grown in another, often human tumour cells in immunodeficient mice.

Data set [6] is described as follows: Stability in PBS at 500 uM measured up to 48 hrs by LC-MS/MS analysis. It is filed as physicochemical. Particulars: buffer.
The nature of data set [7]: Toxicity in female BALB/c mouse xenografted with human Huh-7 cells assessed as pathological change in liver tissue at 2 mg/kg, iv total 4 doses measured on day 17 by hematoxylin and eosin (H and E) staining analysis. The class given is organism-based. The settings on record: in vivo, 408 h, time 17 day.
Data set [8] can be described thus: Toxicity in female BALB/c mouse xenografted with human Huh-7 cells assessed as pathological change in kidney tissue at 1 mg/kg, iv followed by irradiated with 2 Gy for 2 consecutive days, once a week for 3 weeks measured on day 22. The class given is organism-based. The settings on record: in vivo, 528 h, time 22 day.
For data set [9], the system named is LX-2. As to the kind of experiment: Antiproliferative activity against GPC3-negative human LX-2 cells assessed as cytotoxicity measured after 72 hrs by MTT assay. It is filed as functional, cell-based. The settings on record: LX-2, 72 h.
A short description of data set [10]: Toxicity in female BALB/c mouse xenografted with human Huh-7 cells assessed as pathological change in liver tissue at 1 mg/kg, iv followed by irradiated with 2 Gy for 2 consecutive days, once a week for 3 weeks measured on day 22. The class given is organism-based. The settings on record: in vivo, 528 h, time 22 day.
A short description of data set [11]: Toxicity in female BALB/c mouse xenografted with human Huh-7 cells assessed as pathological change in heart tissue at 1 mg/kg, iv followed by irradiated with 2 Gy for 2 consecutive days, once a week for 3 weeks measured on day 22. It is filed as organism-based. Particulars: in vivo, 528 h, time 22 day.
Data set [12] is described as follows: Plasma stability in human plasma assessed as half life at 500 uM by LC-MS/MS analysis. The class given is ADME, cell-free.
Data set [13] can be described thus: Plasma stability in mouse plasma assessed as half life at 500 uM by LC-MS/MS analysis. It is filed as ADME, cell-free.
Data set [14] can be described thus: Toxicity in female BALB/c mouse xenografted with human Huh-7 cells assessed as pathological change in lung tissue at 1 mg/kg, iv followed by irradiated with 2 Gy for 2 consecutive days, once a week for 3 weeks measured on day 22. The class given is organism-based. Particulars: in vivo, 528 h, time 22 day.
A short description of data set [15]: Toxicity in female BALB/c mouse xenografted with human Huh-7 cells assessed as pathological change in kidney tissue at 2 mg/kg, iv total 4 doses measured on day 17 by hematoxylin and eosin (H and E) staining analysis. The settings on record: in vivo, 408 h, time 17 day. The class given is organism-based.
Data set [16] can be described thus: Toxicity in female BALB/c mouse xenografted with human Huh-7 cells assessed as body weight change at 0.5 to 2 mg/kg, iv total 4 doses measured on day 17. It is filed as organism-based. Particulars: in vivo, 408 h, dose 0.5-2 mg/kg, time 17 day.
Data set [17] in a line: Toxicity in female BALB/c mouse xenografted with human Huh-7 cells assessed as pathological change in spleen tissue at 2 mg/kg, iv total 4 doses measured on day 17 by hematoxylin and eosin (H and E) staining analysis. The class given is organism-based. Particulars: in vivo, 408 h, time 17 day.
Data set [18] can be described thus: Toxicity in female BALB/c mouse xenografted with human Huh-7 cells assessed as pathological change in lung tissue at 2 mg/kg, iv total 4 doses measured on day 17 by hematoxylin and eosin (H and E) staining analysis. The settings on record: in vivo, 408 h, time 17 day. The class given is organism-based.
Data set [19] can be described thus: Toxicity in female BALB/c mouse xenografted with human Huh-7 cells assessed as pathological change in heart tissue at 2 mg/kg, iv total 4 doses measured on day 17 by hematoxylin and eosin (H and E) staining analysis. The settings on record: in vivo, 408 h, time 17 day. The class given is organism-based.
The subject of data set [20] is Huh-7. The experiment in a line: Antiproliferative activity against GPC3-positive human Huh-7 cells assessed as cytotoxicity measured after 72 hrs by MTT assay. The class given is functional, cell-based. The settings on record: Huh-7, 72 h.
Data set [21] in a line: Plasma stability in mouse plasma assessed as compound remaining at 500 uM measured after 8 hrs by LC-MS/MS analysis relative to control. Particulars: read-out: Stability. The class given is ADME, cell-free.
Data set [22] deals with Cathepsin B (Homo sapiens, UniProt P07858). The experiment in a line: Drug metabolism assessed as human cathepsin B-mediated monomethyl auristatin E release in HEK293 cells at pH 5.5 buffer measured after 30 mins by LC-MS/MS analysis. The class given is ADME, cell-based. Particulars: hek293, pH 5.5, 0.5 h.
Data set [23] in a line: Plasma stability in human plasma assessed as compound remaining at 500 uM measured after 48 hrs by LC-MS/MS analysis relative to control. The class given is ADME, cell-free. Particulars: read-out: Stability.
Data set [24] is described as follows: Toxicity in female BALB/c mouse xenografted with human Huh-7 cells assessed as body weight change at 1 mg/kg, iv followed by irradiated with 2 Gy for 2 consecutive days, once a week for 3 weeks measured on day 22. It is filed as organism-based. Particulars: in vivo, 528 h, time 22 day.
Data set [25] concerns Hep 3B2. The experiment in a line: Antiproliferative activity against GPC3-positive human Hep3B cells assessed as cytotoxicity measured after 72 hrs by MTT assay. It is filed as functional, cell-based.

With `CC[C@H](C)[C@@H]([C@@H](CC(=O)N1CCC[C@H]1[C@H](OC)[C@@H](C)C(=O)N[C@H](C)[C@@H](O)c1ccccc1)OC)N(C)C(=O)[C@@H](NC(=O)[C@H](C(C)C)N(C)C(=O)OCc1ccc(NC(=O)[C@H](CCCNC(N)=O)NC(=O)[C@@H](NC(=O)CCCCCN2C(=O)CC(SC[C@H](NC(=O)CCCCC[N+]3=C(/C=C/C=C/C=C4\N(C)c5ccc6ccccc6c5C4(C)C)C(C)(C)c4c3ccc3ccccc43)C(=O)N[C@@H](CO)C(=O)N[C@@H](CC(N)=O)C(=O)N[C@@H](CC(=O)O)C(=O)N[C@@H](CCCNC(=N)N)C(=O)N3CCC[C@H]3C(=O)N3CCC[C@H]3C(=O)N[C@@H](CC(N)=O)C(=O)N[C@H](C(=O)N[C@@H](CC(C)C)C(=O)N[C@@H](CCC(N)=O)C(=O)N[C@@H](CCCCN)C(=O)N[C@@H](CCCNC(=N)N)C(N)=O)[C@@H](C)CC)C2=O)C(C)C)cc1)C(C)C` (stereo not given in full), the Drug uptake result in [1] and in [2] was “Active” throughout.

Turning to `CC[C@H](C)[C@@H]([C@@H](CC(=O)N1CCC[C@H]1[C@H](OC)[C@@H](C)C(=O)N[C@H](C)[C@@H](O)c1ccccc1)OC)N(C)C(=O)[C@@H](NC(=O)[C@H](C(C)C)N(C)C(=O)OCc1ccc(NC(=O)[C@H](CCCNC(N)=O)NC(=O)[C@@H](NC(=O)CCCCCN2C(=O)CC(SC[C@H](N)C(=O)N[C@@H](CO)C(=O)N[C@@H](CC(N)=O)C(=O)N[C@@H](CC(=O)O)C(=O)N[C@@H](CCCNC(=N)N)C(=O)N3CCC[C@H]3C(=O)N3CCC[C@H]3C(=O)N[C@@H](CC(N)=O)C(=O)N[C@H](C(=O)N[C@@H](CC(C)C)C(=O)N[C@@H](CCC(N)=O)C(=O)N[C@@H](CCCCN)C(=O)N[C@@H](CCCNC(=N)N)C(N)=O)[C@@H](C)CC)C2=O)C(C)C)cc1)C(C)C` (stereo not given in full), the remaining at 8 h, 500 µM stood at 57.2% in data set [3] and 19.9% in data set [21]. In addition, the IC50 in data set [4] was greater than 100 nM; in data set [9], greater than 100 nM; in [20], 1.91 nM; in data set [25], 12.2 nM. For the same compound, the Activity result in data set [5], in data set [7], in [8], in data set [10], in data set [11] and in data set [14] was “Non-toxic” in each case. The Activity entry in [15], in data set [16], in data set [17], in [18], in [19] and in [24] was “Non-toxic” in each case. Moreover, the Stability result in data set [6] was “Stable”. Besides, the figures for the half-life at 500 µM in [12] and in data set [13] were 8.8 h and 4 h, respectively. Besides, the Drug metabolism result in [22] is “metabolite_detected”. Besides, the remaining at 48 h, 500 µM in data set [23] amounted to 25.3%.
